In general, melting point refers to the temperature, or range, at which the solid turns liquid.

The compound `CC[C@H]1OC(=O)[C@H](C)[C@@H](O)[C@H](C)C(O[C@@H]2O[C@H](C)C[C@@H](N(C)C)[C@H]2O)[C@](C)(O)C[C@@H](C)CN(CCCNC(=O)[C@@]2(O)[C@H](C)CC3C4C[C@H](F)C5=CC(=O)C=C[C@]5(C)C4[C@@H](O)C[C@@]32C)[C@H](C)[C@@H](O)[C@]1(C)O` (some centres unmarked) came in with a melting point of 202 to 204 °C.
The result for `CC[C@H]1OC(=O)[C@H](C)[C@@H](O)[C@H](C)[C@@H](O[C@@H]2O[C@H](C)C[C@@H](N(C)C)[C@H]2OC(=O)CCCCOC(=O)[C@@]2(O)[C@H](C)CC3C4CCC5=CC(=O)C=C[C@]5(C)[C@@]4(F)[C@@H](O)C[C@@]32C)[C@](C)(O)C[C@@H](C)CN(C)[C@H](C)[C@@H](O)[C@]1(C)O` (some centres unmarked) reads 170 °C; that for `CC[C@H]1OC(=O)[C@H](C)[C@@H](O)[C@H](C)[C@@H](O[C@@H]2O[C@H](C)C[C@@H](N(C)C)[C@H]2OC(=O)CCCCOC(=O)[C@@]2(O)[C@H](C)CC3C4C[C@H](F)C5=CC(=O)C=C[C@]5(C)C4[C@@H](O)C[C@@]32C)[C@](C)(O)C[C@@H](C)CN(C)[C@H](C)[C@@H](O)[C@]1(C)O` (some centres unmarked), 145 to 151 °C.
The result for `CC[C@H]1OC(=O)[C@H](C)[C@@H](O[C@@H]2C[C@](C)(OC)[C@H](O)C(C)O2)[C@H](C)[C@@H](O[C@@H]2O[C@H](C)C[C@@H](N(C)C)[C@H]2OC(=O)CCCCOC(=O)[C@@]2(O)[C@H](C)CC3C4C[C@H](F)C5=CC(=O)C=C[C@]5(C)[C@@]4(Cl)[C@@H](O)C[C@@]32C)[C@](C)(O)C[C@@H](C)CN(C)[C@H](C)[C@@H](O)[C@]1(C)O` (some centres unmarked) reads 91 to 99 °C; that for `CC[C@H]1OC(=O)[C@H](C)[C@@H](O)[C@H](C)[C@@H](O[C@@H]2O[C@H](C)C[C@@H](N(C)C)[C@H]2O)[C@](C)(O)C[C@@H](C)CN(CCCNC(=O)[C@@]2(O)CCC3C4CCC5=CC(=O)CC[C@]5(C)C4[C@@H](O)C[C@@]32C)[C@H](C)[C@@H](O)[C@]1(C)O` (some centres unmarked), 160 to 161 °C; that for `CC[C@H]1OC(=O)[C@H](C)[C@@H](O[C@@H]2C[C@](C)(OC)[C@H](O)C(C)O2)[C@H](C)[C@@H](O[C@@H]2O[C@H](C)C[C@@H](N(C)C)[C@H]2O)[C@](C)(O)C[C@@H](C)CN(CCCNC(=O)[C@@]2(O)[C@H](C)CC3C4C[C@H](F)C5=CC(=O)C=C[C@]5(C)[C@@]4(Cl)[C@@H](O)C[C@@]32C)[C@H](C)[C@@H](O)[C@]1(C)O` (some centres unmarked), 194 to 202 °C.
Then `CC[C@H]1OC(=O)[C@H](C)[C@@H](O[C@@H]2C[C@](C)(OC)[C@H](O)C(C)O2)[C@H](C)[C@@H](O[C@@H]2O[C@H](C)C[C@@H](N(C)C)[C@H]2O)[C@](C)(O)C[C@@H](C)CN(CCCNC(=O)[C@@]23OC(C)(C)O[C@@H]2CC2C4C[C@H](F)C5=CC(=O)C=C[C@]5(C)[C@@]4(F)[C@@H](O)C[C@@]23C)[C@H](C)[C@@H](O)[C@]1(C)O` (some centres unmarked), with 178 °C; and `CC[C@H]1OC(=O)[C@H](C)[C@@H](OC(=O)CCCCOC(=O)[C@@]2(O)[C@H](C)CC3C4CCC5=CC(=O)C=C[C@]5(C)[C@@]4(F)[C@@H](O)C[C@@]32C)[C@H](C)[C@@H](O[C@@H]2O[C@H](C)C[C@@H](N(C)C)[C@H]2OC(C)=O)[C@](C)(O)C[C@@H](C)CN(C)[C@H](C)[C@@H](O)[C@]1(C)O` (some centres unmarked), with 174 to 175 °C; and `CC[C@H]1OC(=O)[C@H](C)[C@@H](O)[C@H](C)[C@@H](O[C@@H]2O[C@H](C)C[C@@H](N(C)C)[C@H]2O)[C@](C)(O)C[C@@H](C)CN(CCCNC(=O)[C@@]2(O)[C@H](C)CC3C4CCC5=CC(=O)C=C[C@]5(C)[C@@]4(F)[C@@H](O)C[C@@]32C)[C@H](C)[C@@H](O)[C@]1(C)O` (some centres unmarked), with 260 to 265 °C.
`CC[C@H]1OC(=O)C(C)[C@@H](O)[C@H](C)[C@@H](O[C@@H]2O[C@H](C)C[C@@H](N(C)C)[C@H]2O)[C@](C)(O)C[C@@H](C)CN(CCCNC(=O)[C@@]2(O)[C@H](C)CC3C4C[C@H](F)C5=CC(=O)C=C[C@]5(C)[C@@]4(Cl)[C@@H](O)C[C@@]32C)[C@H](C)[C@@H](O)[C@]1(C)O` (some centres unmarked) returned a melting point of 130 to 132 °C.
Then `CC[C@H]1OC(=O)[C@H](C)[C@@H](O)[C@H](C)[C@@H](O[C@@H]2O[C@H](C)C[C@@H](N(C)C)[C@H]2O)[C@](C)(O)C[C@@H](C)CN(CCCNC(=O)[C@@]2(O)[C@H](C)CC3C4C[C@H](F)C5=CC(=O)C=C[C@]5(C)[C@@]4(F)[C@@H](O)C[C@@]32C)[C@H](C)[C@@H](O)[C@]1(C)O` (some centres unmarked), with 182 °C; and `CC[C@H]1OC(=O)[C@H](C)[C@@H](O[C@@H]2C[C@](C)(OC)[C@H](O)C(C)O2)[C@H](C)[C@@H](O[C@@H]2O[C@H](C)C[C@@H](N(C)C)[C@H]2OC(=O)CCCCOC(=O)[C@@]2(O)[C@H](C)CC3C4C[C@H](F)C5=CC(=O)C=C[C@]5(C)[C@@]4(F)[C@@H](O)C[C@@]32C)[C@](C)(O)C[C@@H](C)CN(C)[C@H](C)[C@@H](O)[C@]1(C)O` (some centres unmarked), with 159 to 160 °C.
Then `CC[C@H]1OC(=O)[C@H](C)[C@@H](O[C@@H]2C[C@](C)(OC)[C@H](O)C(C)O2)[C@H](C)[C@@H](O[C@@H]2O[C@H](C)C[C@@H](N(C)C)[C@H]2O)[C@](C)(O)C[C@@H](C)CN(CCCNC(=O)[C@@]2(O)[C@H](C)CC3C4C[C@H](F)C5=CC(=O)C=C[C@]5(C)C4[C@@H](O)C[C@@]32C)[C@H](C)[C@@H](O)[C@]1(C)O` (some centres unmarked), with 175 to 178 °C; and `CC[C@H]1OC(=O)[C@H](C)[C@@H](O[C@@H]2C[C@](C)(OC)[C@H](O)C(C)O2)[C@H](C)[C@@H](O[C@@H]2O[C@H](C)C[C@@H](N(C)C)[C@H]2OC(=O)CCCCOC(=O)[C@@]2(O)[C@H](C)CC3C4CCC5=CC(=O)C=C[C@]5(C)[C@@]4(F)[C@@H](O)C[C@@]32C)[C@](C)(O)C[C@@H](C)CN(C)[C@H](C)[C@@H](O)[C@]1(C)O` (some centres unmarked), with 161 to 168 °C.

Source of the values: patent publication US7928078B2, “Conjugates of immune cell specific macrolide compounds with anti-inflammatory compounds for improved cellular targeting of anti-inflammatory therapy” (GlaxoSmithKline Istrazivacki Centar Zagreb D.O.O., priority 2001, dated 2011).
